According to patent US4157391A, “Cholesterol derivative-based medicaments acting on bio-protective mechanisms” (The Green Cross Corporation, priority 1977, dated 1979):
Values after ≈ are worked out from the molar mass of the structure shown.

Assays:
PHA reaction = PHA reaction 50% inhibition (PHA method by Cooperband et al.), immunoregulatory action in vitro; assay type: cell-based; conditions: read-out: PHA reaction 50% inhibition concentration
Source text: The PHA reaction 50% inhibition concentration of the compounds of the general formula (I) were examined by using the PHA method by Cooperband, S. R., et al., (The Journal of Immunology, 109, (1), 154, (1972)). For sake of comparison, the effect of IRA obtained according to the Occhino et al., method (The Journal of Immunology, 110, (3), 685, (1973)) was also shown.

[1] = test system: edemata grown on the mice legs (carrageenin); experiment: Antiphlogistic action: carrageenin edema of hind legs in mice; assay type: in vivo
Description: 20 Mice were divided into four groups of five and the mice of two test groups were administered intra-abdominally with 7-hydroxycholesterol and 7-ketocholesterol, respectively, with the dose of 200 mg/kg (physiologically isotonic 2.0 weight % aqueous solution), and 1 hour later, 0.05 ml of 1% carrageenin was administered as a phlogogenic agent subcutaneously to the hind legs of these mice.
The sizes of the edemata grown on the mice legs with time after carrageenin administration were measured by a volume differential meter and compared with those of the control mice to which an isotonic sodium chloride solution was administered.
The test results are shown in the graph of FIG. 1 of the accompanying drawing. In the graph, percent of growth of edema is given on the vertical Y-axis and time (hour) after carrageenin administration is given on the horizontal X-axis. The numerals for the respective curves represent the respective specimens used in the test, that is, 1 represents isotonic sodium chloride solution, 2 cholesterol, 3 7-ketocholesterol, and 4 7-hydroxycholesterol.

rats = experiment: Acute toxicity test in rats; assay type: in vivo; conditions: intra-abdominal, 500, 1,000, 1,500 and 2,000 mg/kg, 5-day observation
Description: An acute toxicity test of 7-hydroxycholesterol and 7-ketocholesterol was conducted on one group of rats (5 rats) with average body weight of about 200 gr. Each compound was suspended in a physiological solution of sodium chloride and made into a uniform suspension by a supersonic treatment, and then such suspension was administered intro-abdominally to each rat at the doses of 500 mg/kg, 1,000 mg/kg, 1,500 mg/kg and 2,000 mg/kg, respectively.

Compound	IC50 (PHA reaction) [µg/mL]	growth of edema ([1]; 200 mg/kg intra-abdominally, five hours after carrageenin, control 82% in four hours)	death in acute toxicity test (rats)	growth of edema ([1]; four hours after carrageenin, cholesterol group (reference data), control 82%) [%]	growth of edema ([1]; 200 mg/kg intra-abdominally, time not separately stated, control 82% in four hours)
CC(C)CCC[C@@H](C)[C@H]1CC[C@H]2[C@@H]3C(O)C=C4C[C@@H](O)CC[C@]4(C)[C@H]3CC[C@]12C (stereo partly shown) [7-hydroxycholesterol]	5 (≈ 12.4 µM)	about 40%	No death	–	–
CC(C)CCC[C@@H](C)[C@H]1CC[C@H]2[C@@H]3CC=C4C[C@@H](O)CC[C@]4(C)[C@H]3CC[C@]12C [cholesterol]	–	–	–	70	–
CC(C)CCC[C@@H](C)[C@H]1CC[C@H]2[C@@H]3C(=O)C=C4C[C@@H](O)CC[C@]4(C)[C@H]3CC[C@]12C [7-ketocholesterol]	8 (≈ 20 µM)	–	No death	–	about 50%
